Measured values published in ChEMBL document CHEMBL5331083, “Targeting ferroptosis: Paving new roads for drug design and discovery” (Eur J Med Chem, 2023).
Blank lines part the entries; values can stand above or below the compound they belong to.

Key:
Type in all cases: functional, cell-based
[1] = Inhibition of ferroptosis in tamoxifen induced Gpx4-/- mouse MEF cells
[2] = Inhibition of erastin-induced cell death in human HT-1080 cells
MCF7 = assay: Cytotoxicity against human MCF7 cells incubated for 48 hrs by MTT assay; details: MCF7, 48 h
HT-22 [3] = assay: Inhibition of erastin-induced ferroptosis in mouse HT-22 cells incubated for 24 hrs by MTT assay; details: HT-22, 24 h
HT-22 [4] = assay: Inhibition of RSL3-induced ferroptosis in mouse HT-22 cells incubated for 24 hrs by MTT assay; details: HT-22, 24 h

IC50 [1]: 22 nM
Structure (SMILES): Clc1cccc(CNC2=Nc3ccccc3NC23CCNCC3)c1

Structure (SMILES): CCOC(=O)c1ccc(NC2CCCCC2)c(N)c1
IC50 [2]: 95 nM

Structure (SMILES): CCOC(=O)c1ccc(NC2CCCCC2)c(NCc2ccccc2)c1
IC50 [2]: 6 nM

Structure (SMILES): COc1cc(O)c2c(=O)cc(-c3ccc(O)c(-c4c(O)cc5oc(-c6ccc(O)cc6)cc(=O)c5c4OC)c3)oc2c1
IC50 (MCF7): 11900 nM

Structure (SMILES): CCO[C@@H]1C[C@@H]2C[C@@H]([C@@]3(C)[C@H](C)C[C@H](OC(C)=O)[C@]4(COC(C)=O)[C@@H]3CC[C@H](OC(=O)C(C)CC)[C@]43CO3)O[C@@H]2O1 (stereo partly specified)
EC50 (HT-22 [3]): 4100 nM | EC50 (HT-22 [4]): 3600 nM
